Measurements as given in the NIST ThermoML archive (doi:10.1021/je060271a).

Details: Liquid, Vibrating tube method

CCCCCCC(=O)OCC(COC(=O)CCCCCC)(COC(=O)CCCCCC)COC(=O)CCCCCC [pentaerythritol tetraheptanoate]
Details	mass density [kg/m3]
283.14 K, 28046 kPa	1001
283.14 K, 28067 kPa	1001
283.14 K, 28089 kPa	1001.1
283.14 K, 28108 kPa	1001.1
283.14 K, 28129 kPa	1001.2
283.14 K, 28154 kPa	1001.1
283.14 K, 28174 kPa	1001.2
283.14 K, 28195 kPa	1001.1
283.14 K, 28219 kPa	1001
283.14 K, 28239 kPa	1001.2
283.14 K, 28263 kPa	1001.3
283.14 K, 28285 kPa	1001.2
283.14 K, 28305 kPa	1001.2
283.14 K, 28326 kPa	1001.3
283.14 K, 28352 kPa	1001.1
283.14 K, 28370 kPa	1001.3
283.14 K, 28395 kPa	1001.3
283.14 K, 28416 kPa	1001.2
283.14 K, 28441 kPa	1001.3
283.14 K, 28461 kPa	1001.4
283.14 K, 28482 kPa	1001.2
283.14 K, 28503 kPa	1001.3
283.14 K, 28528 kPa	1001.3
283.14 K, 28550 kPa	1001.3
283.14 K, 28575 kPa	1001.4
283.14 K, 28596 kPa	1001.4
283.14 K, 28617 kPa	1001.3
283.14 K, 28642 kPa	1001.4
283.14 K, 28664 kPa	1001.4
283.14 K, 28685 kPa	1001.4
283.14 K, 28707 kPa	1001.4
283.14 K, 28732 kPa	1001.3
283.14 K, 28753 kPa	1001.4
283.14 K, 28775 kPa	1001.4
283.14 K, 28801 kPa	1001.5
283.14 K, 28822 kPa	1001.5
283.14 K, 28848 kPa	1001.4
283.14 K, 28870 kPa	1001.4
283.14 K, 28891 kPa	1001.4
283.14 K, 28912 kPa	1001.6
283.14 K, 28939 kPa	1001.6
283.14 K, 28961 kPa	1001.6
283.14 K, 28983 kPa	1001.6
283.14 K, 29009 kPa	1001.5
283.14 K, 29031 kPa	1001.6
283.14 K, 29058 kPa	1001.4
283.14 K, 29080 kPa	1001.6
283.14 K, 29101 kPa	1001.6
283.14 K, 29123 kPa	1001.6
283.14 K, 29150 kPa	1001.7
283.14 K, 29172 kPa	1001.6
283.14 K, 29195 kPa	1001.6
283.14 K, 29221 kPa	1001.7
283.14 K, 29244 kPa	1001.7
283.14 K, 29267 kPa	1001.7
283.14 K, 29290 kPa	1001.7
283.14 K, 29317 kPa	1001.7
283.14 K, 29339 kPa	1001.7
283.14 K, 29361 kPa	1001.8
283.14 K, 29388 kPa	1001.7
283.14 K, 29411 kPa	1001.7
283.14 K, 29438 kPa	1001.9
283.14 K, 29460 kPa	1001.9
283.14 K, 29483 kPa	1001.8
283.14 K, 29506 kPa	1001.8
283.14 K, 29534 kPa	1001.9
283.14 K, 29557 kPa	1001.9
283.14 K, 29579 kPa	1001.8
283.14 K, 29608 kPa	1001.8
283.14 K, 29631 kPa	1001.8
283.14 K, 29654 kPa	1001.9
283.14 K, 29681 kPa	1001.9
283.14 K, 29704 kPa	1002
283.14 K, 29727 kPa	1001.8
283.14 K, 29755 kPa	1001.9
283.14 K, 29778 kPa	1001.9
283.14 K, 29801 kPa	1002
283.14 K, 29829 kPa	1001.9
283.14 K, 29852 kPa	1002
283.14 K, 29876 kPa	1002
283.14 K, 29904 kPa	1002
283.14 K, 29928 kPa	1002
283.14 K, 29951 kPa	1002
283.14 K, 29975 kPa	1002
283.14 K, 30004 kPa	1002
283.14 K, 30027 kPa	1002
283.14 K, 30051 kPa	1002
283.14 K, 30079 kPa	1002
283.14 K, 30102 kPa	1002.1
283.14 K, 30131 kPa	1002.2
283.14 K, 30156 kPa	1002.2
283.14 K, 30180 kPa	1002.1
283.14 K, 30206 kPa	1002.2
283.14 K, 30254 kPa	1002.2
283.14 K, 30284 kPa	1002.1
283.14 K, 30307 kPa	1002.2
283.14 K, 30336 kPa	1002.2
283.14 K, 30361 kPa	1002.3
283.14 K, 30385 kPa	1002.3
283.14 K, 30410 kPa	1002.2
283.14 K, 30440 kPa	1002.3
283.14 K, 30465 kPa	1002.3
283.14 K, 30490 kPa	1002.3
283.14 K, 30520 kPa	1002.3
283.14 K, 30546 kPa	1002.3
283.14 K, 30571 kPa	1002.2
283.14 K, 30595 kPa	1002.3
283.14 K, 30620 kPa	1002.4
283.14 K, 30650 kPa	1002.3
283.14 K, 30675 kPa	1002.4
283.14 K, 30700 kPa	1002.4
283.14 K, 30730 kPa	1002.4
283.14 K, 30755 kPa	1002.4
283.14 K, 30785 kPa	1002.4
283.14 K, 30810 kPa	1002.4
283.14 K, 30836 kPa	1002.5
283.14 K, 30861 kPa	1002.5
283.14 K, 30892 kPa	1002.6
283.14 K, 30917 kPa	1002.5
283.14 K, 30943 kPa	1002.5
283.14 K, 30974 kPa	1002.6
283.14 K, 30999 kPa	1002.5
283.14 K, 31030 kPa	1002.6
283.14 K, 31056 kPa	1002.5
283.14 K, 31082 kPa	1002.6
283.14 K, 31108 kPa	1002.7
283.14 K, 31138 kPa	1002.5
283.14 K, 31165 kPa	1002.5
283.14 K, 31191 kPa	1002.7
283.14 K, 31223 kPa	1002.6
283.14 K, 31249 kPa	1002.7
283.14 K, 31275 kPa	1002.7
283.14 K, 31306 kPa	1002.7
283.14 K, 31332 kPa	1002.7
283.14 K, 31358 kPa	1002.7
283.14 K, 31390 kPa	1002.7
283.14 K, 31416 kPa	1002.8
283.14 K, 31443 kPa	1002.8
283.14 K, 31474 kPa	1002.7
283.14 K, 31501 kPa	1002.8
283.14 K, 31533 kPa	1002.8
283.14 K, 31560 kPa	1002.7
283.14 K, 31587 kPa	1002.8
283.14 K, 31614 kPa	1002.8
283.14 K, 31646 kPa	1002.9
283.14 K, 31672 kPa	1002.9
283.14 K, 31699 kPa	1003
283.14 K, 31732 kPa	1002.8
283.14 K, 31759 kPa	1002.8
283.14 K, 31791 kPa	1002.9
283.14 K, 31818 kPa	1002.9
283.14 K, 31845 kPa	1003
283.14 K, 31878 kPa	1002.9
283.14 K, 31905 kPa	1003.1
283.14 K, 31932 kPa	1002.9
283.14 K, 31960 kPa	1003
283.14 K, 31994 kPa	1003
283.14 K, 32021 kPa	1003
283.14 K, 32054 kPa	1003.1
283.14 K, 32082 kPa	1003
283.14 K, 32109 kPa	1003.2
283.14 K, 32143 kPa	1003.1
283.14 K, 32170 kPa	1003.1
283.14 K, 32198 kPa	1003.1
283.14 K, 32231 kPa	1003.2
283.14 K, 32260 kPa	1003.1
283.14 K, 32288 kPa	1003.2
283.14 K, 32321 kPa	1003.2
283.14 K, 32350 kPa	1003.3
283.14 K, 32378 kPa	1003.2
283.14 K, 32406 kPa	1003.3
283.14 K, 32441 kPa	1003.2
283.14 K, 32469 kPa	1003.3
283.14 K, 32503 kPa	1003.3
283.14 K, 32531 kPa	1003.3
283.14 K, 32560 kPa	1003.4
283.14 K, 32595 kPa	1003.3
283.14 K, 32624 kPa	1003.5
283.14 K, 32653 kPa	1003.3
283.14 K, 32687 kPa	1003.3
283.14 K, 32718 kPa	1003.3
283.14 K, 32747 kPa	1003.4
283.14 K, 32776 kPa	1003.4
283.14 K, 32810 kPa	1003.5
283.14 K, 32840 kPa	1003.5
283.14 K, 32869 kPa	1003.5
283.14 K, 32898 kPa	1003.6
283.14 K, 32934 kPa	1003.4
283.14 K, 32963 kPa	1003.5
283.14 K, 32992 kPa	1003.5
283.14 K, 33028 kPa	1003.6
283.14 K, 33057 kPa	1003.6
283.14 K, 33093 kPa	1003.5
283.14 K, 33125 kPa	1003.6
283.14 K, 33155 kPa	1003.7
283.14 K, 33185 kPa	1003.6
283.14 K, 33215 kPa	1003.7
283.14 K, 33251 kPa	1003.7
283.14 K, 33281 kPa	1003.7
283.14 K, 33311 kPa	1003.6
283.14 K, 33347 kPa	1003.7
283.14 K, 33377 kPa	1003.6
283.14 K, 33414 kPa	1003.7
283.14 K, 33444 kPa	1003.8
283.14 K, 33474 kPa	1003.8
283.14 K, 33511 kPa	1003.8
283.14 K, 33542 kPa	1003.9
283.14 K, 33572 kPa	1003.8
283.14 K, 33604 kPa	1003.8
283.14 K, 33641 kPa	1003.9
283.14 K, 33671 kPa	1003.9
283.14 K, 33708 kPa	1003.8
283.14 K, 33739 kPa	1003.8
283.14 K, 33770 kPa	1003.8
283.14 K, 33808 kPa	1004
283.14 K, 33839 kPa	1004
283.14 K, 33870 kPa	1003.9
283.14 K, 33907 kPa	1004
283.14 K, 33938 kPa	1003.9
283.14 K, 34406 kPa	1004.3
283.14 K, 34575 kPa	1004.3
283.14 K, 34576 kPa	1004.3
283.15 K, 100.4 kPa	985.9
